IC50 data for seven compounds are collected here from PMC6017909, “Synthesis and Evaluation of the Tumor Cell Growth Inhibitory Potential of New Putative HSP90 Inhibitors” (Molecules : A Journal of Synthetic Chemistry and Natural …, 2018).

Assay [1] has as its system A431. Kind of assay: Cell-counting assay, 72-h drug exposure. Format: cell-based. Particulars: Homo sapiens, A-431, read-out: Cell Growth Inhibitory Activity A431 IC50 72 h. The source says: (§1) For the cytotoxic activity studies and determination of GI50 concentrations in three different tumor cell lines, the cell culture conditions are described in Section 3.5. For the studies on the effect on % viable cells, cell cycle, cellular proliferation, and apoptosis, culture conditions are described in Section 3.6.1. For the remaining studies, the epithelial carcinoma cell line A431 and the non-small cell lung carcinoma cell line NCI-H460 were routinely grown in RPMI 1640 (Lonza, Vierviers, Belgium), supplemented with 10% (v/v) heat-inactivated fetal bovine serum (FBS, GIBCO, Invitrogen, Paisley, UK). The human peritoneal mesothelioma cell line STO was kindly provided by Dr. N. Zaffaroni (IRCCS Istituto Nazionale Tumori, Milan, Italy) and grown in 50/50 DMEM-Ham’s F12 medium (Lonza, Vierviers, Belgium), supplemented with 10% (v/v) heat-inactivated foetal bovine serum and 2 mM L-glutamine (L-Gln). All cell lines were maintained at 37 °C in a 5%/95% CO2/air atmosphere. All the compounds tested were freshly prepared by dissolving powder in dimethylsulfoxide (DMSO) (BDH Prolabo, Milan, Italy) and following dilution in culture medium. Cells were incubated with drugs for 48 h or 72 h (unless otherwise stated) at 37 °C in culture medium supplemented with 10% (v/v) heat-inactivated FBS; drug concentrations used for each assay and duration of treatments are reported in Legends to Figures.
(§2) Cellular sensitivity to drugs was evaluated by a cell-counting assay after 72-h drug exposure. Cells in the logarithmic phase of growth were seeded in duplicate into 6-well plates. Twenty-four hours after seeding, the drug was added to the medium. Cells were harvested 72 h after drug exposure and counted with a cell counter.

For assay [2], the system named is NCI-H460. As to the kind of experiment: Cell-counting assay, 72-h drug exposure. In kind it is cell-based. The following applies: Homo sapiens, read-out: Cell Growth Inhibitory Activity NCI-H460 IC50 72 h.
Source text: as §1, §2

Assay [3] concerns STO. Kind of assay: Cell-counting assay, 72-h drug exposure. In kind it is cell-based. Particulars: Homo sapiens, read-out: Cell Growth Inhibitory Activity STO IC50 72 h.
Source text: as §1, §2

The target in assay [4] is T1, HSP90 (Homo sapiens, UniProt P07900).
T1 construct: purchased Stressgen SPP-776
As to the kind of experiment: HSP90 binding, fluorescence polarization with GM-FITC. Particulars: displacement of GM-FITC 5 nM, 30 nM HSP90, 4 °C, 4 h; read-out: Binding HSP90 (FP) IC50. The method, then:
GM-FITC Geldanamycin-fluorescein-5-isothiocyanate (working concentration: 1–400 nM), supplied by Invivogen (06C23-MT, San Diego, CA, USA), was previously dissolved in DMSO to obtain 10 mM stock solutions and kept at −20 °C until use. […] The compounds were previously dissolved in DMSO to obtain stock solutions and kept at −20 °C. The day of experiment, the compounds were prepared by serial dilutions in assay buffer (HFB) containing 20 mM HEPES (K) pH 7.3, 50 mM KCl, 5 mM MgCl2, 20 mM Na2MoO4 and 0.01% NP40. Before each use, 0.1 mg/mL Bovine Gamma globulin and 2 mM DTT were freshly added. […] The plate was mixed on a shaker at 4 °C for 4 h, and the FP values in mP (millipolarization units) were recorded. […] Curve fitting was performed using Prism GraphPad software program (GraphPad software, Inc., San Diego, CA, USA).
On the technique in general: In fluorescence polarisation assays a small probe gives low polarisation when free and higher when bound to something large.

As to `O=C1c2ccccc2C(=O)c2c[n+](Cc3ccccc3)ccc21` [Compound 2a, 2-Benzyl-5,10-dioxo-5,10-dihydro-benzo[g]isoquinolinium bromide], the concentration for half-maximal inhibition (IC50) in assay [1] was 0.2 ± 0.01 µM; in assay [2] it was 0.7 ± 0.01 µM.
Taken in the same sequence, the figures for `O=C1c2ccccc2C(=O)c2c[n+](Cc3ccc(F)cc3F)ccc21` [Compound 2b, 2-(2,4-Difluoro-benzyl)-5,10-dioxo-5,10-dihydro-benzo[g]isoquinolinium bromide] were 3.1 ± 0.5 µM and 3.2 ± 0.5 µM.
Regarding `CC(C)(C)c1ccc(C[n+]2ccc3c(c2)C(=O)c2ccccc2C3=O)cc1` [Compound 2c, 2-(4-tert-Butyl-benzyl)-5,10-dioxo-5,10-dihydro-benzo[g]isoquinolinium bromide], in assay [1], the IC50 amounted to 0.46 ± 0.8 µM.
In the case of `O=c1c2ccccc2oc2cnccc12` [Compound 4, 5H-chromeno[2,3-c]pyridin-5-one], the IC50 in assay [1] was greater than 50 µM; in assay [3], greater than 50 µM; in assay [2], greater than 50 µM; in assay [4] it was greater than 100 µM.
As to `O=c1c2ccccc2sc2cnccc12` [Compound 7], the IC50 in assay [1] is 46.9 µM; in assay [3] it was 46.9 µM; in assay [2] it was greater than 50 µM; in assay [4] it was 2.47 ± 0.09 µM.
Turning to `O=c1c2ccccc2oc2c1ccc[n+]2Cc1ccccc1` [Compound 10, 1-Benzyl-10-oxo-10H-9-oxa-1-azonia-anthracene bromide], the 50% inhibitory concentration (IC50) in assay [1] was greater than 50 µM; in assay [3], greater than 50 µM; in assay [2], greater than 50 µM; in assay [4], greater than 100 µM.
In the case of `C=CCNC1=C2C[C@@H](C)C[C@H](OC)[C@H](O)[C@@H](C)/C=C(\C)[C@H](OC(N)=O)[C@@H](OC)/C=C\C=C(/C)C(=O)NC(=CC1=O)C2=O` [Compound 17-AAG, 17-N-allylamino-17-demethoxygeldanamycin, reference compound], the half-maximal inhibitory concentration (IC50) stood at 0.069 ± 0.005 µM in assay [1] and 0.01 ± 0.002 µM in assay [2].

The term IC50 denotes the concentration needed to halve the response being measured.
